Source: patent US9326968B2, “Composition for enhancing immunity containing compounds represented by chemical formulas 1-8 or sophora flavescens extract as active ingredient” (Korea Research Institute of Bioscience and Biotechnology, priority 2010, dated 2016)

What was measured:
JNK = test: TLR-3 signal pathway western blot, total protein: JNK phosphorylation; type: cell-based, human; conditions: THP-1 cells, 30 μM, 60 μM, and 100 μM 1 hour prior to 50 μg/ml poly (I:C) for 3 hours; concentration-dependent
Procedure: (§1) First, THP-1 cells were prepared at a density of 1.5×10^6 cells/well and cultured in culture medium RPMI 1640 which lacks FBS for 12 hours. Then, the cells were treated with the compound of Formula 1 at a concentration of 30 μM, 60 μM, and 100 μM 1 hour prior to the poly(I:C) treatment, and then treated with 50 μg/ml of poly (I:C) for 3 hours. After 3 hours of treatment, the cells were placed in a tube and pelleted down by centrifugation to remove cell media, washed with PBS once. Subsequently, the cells were added with NE-PER Nuclear extraction reagents (Thermo scientific) and cell lysis buffer to isolate nuclear extract and total protein extract which were then subject to western blot analysis. For the nuclear extract, the level of NFkB and c-Fos was monitored, and for the total protein extract, the level of MAPKs, IKK isoforms, and IRF3 was measured. […] Furthermore, the phosphorylation of MAPKs, i.e., ERK, JNK, and p-38 which act before AP-1 activation in the pathway was reduced by the compound of Formula 1 in a concentration-dependent manner (FIG. 9e).

TRIF-CFP = test: Distribution of TRIF-CFP in transfected THP-1 cells treated with poly (I:C), confocal microscope; type: cell-based, human; conditions: THP-1 cells transfected with pcDNA3-TRIF-CFP, 30 μM, then 50 μg/ml poly (I:C) for 1 hour
Procedure: In order to monitor the changes in distribution of TRIF-CFP in vivo by the compound of Formula 1, THP-1 cells (1×10^6 cells/well) were transfected with 0.5 μg of pcDNA3-TRIF-CFP plasmid by using Nucleofector kit V (Lonza, Switzerland) and cultured at 37° C. for 2 days. Then, the transfected cells were placed in 8-chamber slide coated with Poly-L-Lysine and treated with the compound of Formula 1 at 30 μM, and treated with 50 μg/ml of poly (I:C) for 1 hour. After removing the supernatant, the cells were washed with PBS three times, and fixed onto the slide by applying 200 μl of 4% paraformaldehyde and slowfade gold antifade reagent. Then the changes in the distribution of TRIF-CFP were monitored under carl zeins LSM 510 META confocal microscope.

IKK = test: TLR-3 signal pathway western blot, total protein: IKK phosphorylation; type: cell-based, human; conditions: THP-1 cells, 30 μM, 60 μM, and 100 μM 1 hour prior to 50 μg/ml poly (I:C) for 3 hours; concentration-dependent
Procedure: as §1

[1] = system: rotavirus KJ56-1 (bovine rotavirus, G8P[7]); test: Proliferation of rotavirus KJ56-1 in TF-104 cells; type: cell-based; conditions: MOI 0.01, 30 μM, 3 days
Procedure: In order to investigate the inhibitory effects of the above-disclosed compounds represented by Formulas 1 to 8 against proliferation of rotavirus, the following experiment was conducted using the fetal rhesus monkey kidney cell line TF-104. First, TF-104 cells (1×10^5 cells/well) were treated with rotavirus KJ56-1 (bovine rotavirus, […][7]) with multiplicity of infection (MOI) of 0.01 for 1 hour. Then the supernatant was removed from the cell pellet, and the pelleted cells were added to EMEM medium mixed with 1 μg/ml of trypsin and compounds of Formulas 1 to 8 and cultured at 37° C. for 3 days.

c-Fos = test: TLR-3 signal pathway western blot, nuclear extract: c-Fos; type: cell-based, human; conditions: THP-1 cells, 30 μM, 60 μM, and 100 μM 1 hour prior to 50 μg/ml poly (I:C) for 3 hours; concentration-dependent
Procedure: as §1

p-38 = test: TLR-3 signal pathway western blot, total protein: p-38 phosphorylation; type: cell-based, human; conditions: THP-1 cells, 30 μM, 60 μM, and 100 μM 1 hour prior to 50 μg/ml poly (I:C) for 3 hours; concentration-dependent
Procedure: as §1

ERK = test: TLR-3 signal pathway western blot, total protein: ERK phosphorylation; type: cell-based, human; conditions: THP-1 cells, 30 μM, 60 μM, and 100 μM 1 hour prior to 50 μg/ml poly (I:C) for 3 hours; concentration-dependent
Procedure: as §1

IkB = test: TLR-3 signal pathway western blot, total protein: IkB phosphorylation; type: cell-based, human; conditions: THP-1 cells, 30 μM, 60 μM, and 100 μM 1 hour prior to 50 μg/ml poly (I:C) for 3 hours; concentration-dependent
Procedure: as §1

NFkB p65 = test: TLR-3 signal pathway western blot, nuclear extract: NFkB p65; type: cell-based, human; conditions: THP-1 cells, 30 μM, 60 μM, and 100 μM 1 hour prior to 50 μg/ml poly (I:C) for 3 hours; concentration-dependent
Procedure: as §1

IRF3 [2] = test: IRF3 activity/phosphorylation in THP-1 cells, western blot; type: cell-based, human; conditions: treated with the compound only
Procedure: First, in order to investigate the effects of the extract in activation of IRF3, THP-1 cells were prepared at a density of 1.5×10^6 cells/well and treated with 30 μg/ml of S. flavescens extract, 60 μg/ml of water fraction thereof, or 30 μg/ml of chloroform fraction thereof for 2 hours. After 2 hours of treatment with the extract and fractions thereof, the cells were put into tubes and pelleted down through centrifugation to remove culture media. Then the cell pellet was washed with PBS once and treated with cell lysis buffer to isolate total protein extracts, which were then subjected to western blot analysis. In this analysis, IRF3 protein level was measured.

rotavirus 205-1 = test: Proliferation of rotavirus 205-1 in TF-104 cells; type: cell-based, porcine rotavirus; conditions: 30 μM
IFN-β = IFN-β expression in THP-1 cells, Real-time PCR; type: cell-based, human; conditions: 10 μM, 30 μM, and 60 μM for 6 hours
Procedure: After 6 hours of treatment, the cells were placed in tubes and pelleted down through centrifugation to remove cell media, which was then washed with PBS once and RNA was extracted from the washed cells by using RNeasy Mini Elute Cleanup kit. The concentration and purity of RNA extract was measured by using 2100 Bioanalyzer system (Agilent Technologies), and cDNA was synthesized from this RNA extract by using Taqman reverse transcription reagents kit (Applied Biosystems). The expression level of IFN-β was measured by running Real-time PCR using SYBR Green PCR master mix kit (Applied Biosystem).
Subsequently, in order to investigate the effect of compound of Formula 1 in expression of IFN-β which is induced by IRF3 activation, the compound of Formula 1 was added to the cell group at a concentration of 10 μM, 30 μM, and 60 μM for 6 hours and then the expression level of IFNβ was measured.

IRF3 [3] = test: IRF3 activation in THP-1 cells treated with poly (I:C), western blot; type: cell-based, human; conditions: 30 μM and 60 μM for 1 hour, then 50 μg/ml poly (I:C) for 3 hours, compared to poly (I:C) only
Procedure: First, in order to investigate the effect of the extract in IRF3 activation, THP-1 cells were prepared at a density of 1.5×10^6 cells/well, and treated with the compound of Formula 1 at a concentration of 30 μM and 60 μM for 1 hour and then treated with 50 μg/ml of poly (I:C) for 3 hours. After 3 hours of treatment, the cells were placed in a tube and pelleted down through centrifugation to remove cell media, which was then washed with PBS once and mixed with NE-PER Nuclear extraction reagent (Thermo scientific) and cell lysis buffer to isolate nuclear extract and total protein extract. The isolated extracts were subject to western blot analysis.

In the case of `C=C(C)C(CCC(C)(C)O)Cc1c(O)cc(O)c2c1OC(c1ccc(O)cc1O)CC2=O` (stereo not shown) [Formula 1, 5,7,2′,4′-trihydroxy-8-(5-hydroxy-2-isoprenyl-5-methyl-hexyl-)flavanone], the “phosphorylation of JNK” value (JNK) is reported as “reduced”, the “distribution of TRIF-CFP” value (TRIF-CFP) is reported as “even distribution of TRIF-CFP in the cytoplasm” and the “phosphorylation of IKK” value (IKK) is reported as “reduced”. For the same compound, the “proliferation of rotavirus KJ56-1” value [1] was “significantly inhibited”, the “transport of c-Fos to nucleus” value (c-Fos) was “reduced” and the “phosphorylation of p-38” value (p-38) was “reduced”. The “phosphorylation of ERK” value (ERK) was “reduced”, the “phosphorylation of IkB” value (IkB) was “reduced” and the “transport of NFkB p65 to nucleus” value (NFkB p65) was “reduced”. The IRF3 activity (IRF3 [2]) was “concentration-dependent increased”, the “proliferation of rotavirus 205-1” value (rotavirus 205-1) was “significantly inhibited” and the IFN-β expression (IFN-β) was “concentration-dependent increase”. For the same compound, the IRF3 activation (IRF3 [3]) was “higher level of IRF3 activation”.
